According to paper PMC3968170 (PLoS Pathogens, 2014):

Tests used:
[1] = target: T1, HssS ICD (Bacillus anthracis, UniProt A0AAC8N8V0); settings: 5 uM kinase, 37 C, 30 min; labelled compound
T1 construct: gene BA_3260

[2] = target: T2, HitS ICD (Bacillus anthracis, UniProt Q81RT2); settings: 5 uM kinase, 37 C, 30 min; labelled compound
T2 construct: gene GBAA_1956
T2 sequence (Q81RT2 74-351 limits assumed): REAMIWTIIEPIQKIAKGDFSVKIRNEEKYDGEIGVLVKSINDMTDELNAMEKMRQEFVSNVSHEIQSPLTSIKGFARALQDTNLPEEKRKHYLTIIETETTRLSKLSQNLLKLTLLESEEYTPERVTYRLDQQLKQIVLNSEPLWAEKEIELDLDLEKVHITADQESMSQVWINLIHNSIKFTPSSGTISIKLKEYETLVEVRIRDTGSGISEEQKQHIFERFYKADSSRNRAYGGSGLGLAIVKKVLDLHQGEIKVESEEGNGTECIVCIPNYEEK

T1 sequence (A0AAC8N8V0 189-458 limits assumed): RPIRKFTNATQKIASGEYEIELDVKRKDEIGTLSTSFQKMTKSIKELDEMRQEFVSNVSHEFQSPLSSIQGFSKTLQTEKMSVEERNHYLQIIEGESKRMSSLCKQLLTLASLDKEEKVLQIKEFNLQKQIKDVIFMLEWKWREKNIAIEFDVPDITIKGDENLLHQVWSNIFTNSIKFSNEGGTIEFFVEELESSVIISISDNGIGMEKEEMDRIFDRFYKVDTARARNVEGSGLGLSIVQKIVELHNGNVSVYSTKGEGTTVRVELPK

Nc1ncnc2c1ncn2[C@@H]1O[C@H](COP(=O)(O)OP(=O)(O)OP(=O)(O)O)[C@@H](O)[C@H]1O [ATP]
autophosphorylation, SDS-PAGE and phosphorimager [1]: Both HKs autophosphorylate in the presence of ATP
autophosphorylation, SDS-PAGE and phosphorimager [2]: Both HKs autophosphorylate in the presence of ATP
